Patent US20060035314A1, “Receptors and signalling proteins capable of binding meiotic acting sterols (MAS)” (priority 2000, published 2006)

Tested on: Mouse Oocytes
Experiment: Microinjection of antisense/sense oligonucleotides into mouse oocytes; FF-MAS-triggered resumption of meiosis (GVBD)
Type: cell-based
Conditions: 10 μM FF-MAS (24 hours); added 20 hours after injection of approx. 12 pg of each oligonucleotide; hypoxanthine containing medium
Source text: Two antisense oligonucleotides (20 nucleotides) were utilized for microinjection: 5′-[…]-3′ and 5′-[…]-3′, complementary to the kozak sequence of the mRNA encoded by the cDNA sequence herein designated SAM1a and SAM1b, respectively, both of which are defined in SEQ ID NO: 1 and SEQ ID NO: 3, respectively, shown below. In control experiments, the corresponding sense oligonucleotides were microinjected: 5′-[…]-3′ and 5′-[…]-3′ for mRNA SAM1a and SAM1b, respectively. SAM1a antisense was co-injected with SAM1b antisense from a stock solution containing 1.25 μg/μl of each nucleotide in 10% human serum albumin (hereinafter designated HSA) plus 5 mM Tris (pH value: 7.5). SAM1a sense was co-injected with SAM1b sense from a stock solution containing 1.25 μg/μl of each nucleotide in 10% HSA plus 5 mM Tris (pH value: 7.5). Approximately 12 pg of each oligonucleotide ([…]) were injected into the cytoplasma of individual germinal vesicle (GV)-stage oocytes loaded in a droplet of alpha-MEM supplemented with 0.8% HSA and 3 mM hypoxantine under mineral oil in a 35 mm petri dish on the stage of an inverted microscope. […] The effect of FF-MAS was evaluated after 24 hours of further incubation as the number of oocytes in germinal vesicle breakdown (hereinafter designated GVBD). […]

## CC(C)=CCC[C@@H](C)[C@H]1CC=C2C3=C(CC[C@@]21C)[C@@]1(C)CC[C@H](O)C(C)(C)[C@@H]1CC3 [FF-MAS, 4,4-dimethyl-5α-cholesta-8,14,24-triene-3β-ol]
  GVBD/GVBD + GV: 26/29
